From patent US20220142884A1, “TREATMENT OF AGING OR UV-DAMAGED SKIN” (Echo Pharmaceuticals B.V., priority 2019, published 2022)

Tests used:
[1] = tested on: collagen production; conditions: skin organ cultures, inhibition of PGE2 synthesis; cited from earlier work
[2] = tested on: UV-B induced secretion of prostaglandin E2 (PGE2); experiment: UV-B induced secretion of PGE2 in keratinocyte HaCaT cells (ELISA); assay type: cell-based, Human; conditions: component concentrations (μg/ml) per sample
Protocol: (§1) This assay was conducted on Human Epidermal Keratinocyte cells (HaCaT) and was carried out in triplicates. After reaching the required confluency, the cells were treated with pre-prepared growth medium containing the test component(s) at a final volume of 200 μL/well. Growth medium without test component was used to prepare the blank samples. The cells were incubated for 24 hr. Then, the medium was replaced with PBS (containing the test component) and the cells were subjected to 25 mJ/cm^2 (Table 2) or 12.5 mJ/cm^2 (Table 3) UV-B irradiation. The flux was determined by an external […]. Immediately after irradiation, the PBS was aspirated, and the cells were further incubated with freshly prepared media incubated for 24 hr. at 37° C. with 5% CO2. After incubation, the conditioned medium of the different treatment groups was collected under standardized conditions and centrifuged at 250×g for 5 min to remove particulates. Clear supernatants were frozen at -70° C. until analyses. The UVB-induced cytokines secretion of PGE2 was measured by commercial ELISA, according to the manufacturer's instructions. The percentage inhibition was determined by comparing PGE2 levels in the test samples with PGE2 level in the stimulated controls. Example 1 was repeated in HaCaT cells, using the lower UV-B dosage (12.5 mJ/cm^2 flux). In addition, an extra test component was used (docosahexaenoic acid).

[3] = tested on: UV-B induced secretion of interleukin 8 (IL-8); experiment: UV-B induced secretion of IL-8 in HaCaT cells (ELISA); assay type: cell-based, Human; conditions: UV-B as in Example 1, vs stimulated controls, component concentrations (μg/ml) per sample
Protocol: as §1, with “analyses. […]” for “analyses. The UVB-induced cytokines secretion of PGE2 was measured by commercial ELISA, according to the manufacturer's instructions.”, “comparing IL-8” for “comparing PGE2”, “with the IL-8” for “with PGE2”, “controls.” for “controls. Example 1 was repeated in HaCaT cells, using the lower UV-B dosage (12.5 mJ/cm^2 flux). In addition, an extra test component was used (docosahexaenoic acid).”

[4] = 25 mJ/cm^2 UV-B, 24 hr pre-incubation, vs stimulated controls
[5] = lower UV-B dosage 12.5 mJ/cm^2, vs stimulated controls

In the case of `O=C(O)Cc1ccccc1Nc1c(Cl)cccc1Cl` [diclofenac], the collagen production [1] is listed as “enhanced collagen production”.
With `C=C(C)[C@@H]1CCC(C)=C[C@H]1c1c(O)cc(CCCCC)cc1O` [Sample 1, Cannabidiol] the “Inhibition (%) PGE2” value [2, 4] was 0%, the “Inhibition (%) PGE2” value [2, 5] was −11% and the “Inhibition (%) IL-8” value [3] was −1%.
For `CC/C=C\C/C=C\C/C=C\C/C=C\C/C=C\CCCC(=O)O` [Sample 3, eicosapentaenoic acid], the “Inhibition (%) PGE2” value [2, 4] was −11%, the “Inhibition (%) PGE2” value [2, 5] was −3% and the “Inhibition (%) IL-8” value [3] was −6%.
With `CC/C=C\C/C=C\C/C=C\C/C=C\C/C=C\CCCC(=O)O` [Sample 4, eicosapentaenoic acid] the “Inhibition (%) PGE2” value [2, 4] was 1%, the “Inhibition (%) PGE2” value [2, 5] was 5% and the “Inhibition (%) IL-8” value [3] was −16%.
For `C=C(C)[C@@H]1CCC(C)=C[C@H]1c1c(O)cc(CCCCC)cc1O` [Sample 2, Cannabidiol], the “Inhibition (%) PGE2” value [2, 4] was 17%, the “Inhibition (%) PGE2” value [2, 5] was −8% and the “Inhibition (%) IL-8” value [3] was 3%.
